Test results taken from patent US9815850B2, “Compounds, compositions and methods” (Denali Therapeutics Inc., priority 2016, dated 2017).

Biological target: GST-hRIPK1 (8-327) (Homo sapiens (Human), UniProt Q13546)
Assay: Fluorescent Polarization Binding (FP Binding) assay
Conditions: 10 nM GST-hRIPK1 (8-327), 5 nM fluorescent labeled ligand; read-out: FP IC50
Experimental: Fluorescent Polarization Binding (FP Binding) assay (Berger S. B. et al. […] Maki J. L. et al. […] Test Compounds were serially diluted in DMSO at 100 fold final concentrations in the assay (1% DMSO final). […] For negative control the enzyme addition was replaced by assay buffer only. After addition of 5 μL of fluorescent labeled ligand at twice the final concentrations in assay buffer, the plate was incubated at RT for 30 min.

GST-hRIPK1 (8-327), sequence (Q13546 8-327): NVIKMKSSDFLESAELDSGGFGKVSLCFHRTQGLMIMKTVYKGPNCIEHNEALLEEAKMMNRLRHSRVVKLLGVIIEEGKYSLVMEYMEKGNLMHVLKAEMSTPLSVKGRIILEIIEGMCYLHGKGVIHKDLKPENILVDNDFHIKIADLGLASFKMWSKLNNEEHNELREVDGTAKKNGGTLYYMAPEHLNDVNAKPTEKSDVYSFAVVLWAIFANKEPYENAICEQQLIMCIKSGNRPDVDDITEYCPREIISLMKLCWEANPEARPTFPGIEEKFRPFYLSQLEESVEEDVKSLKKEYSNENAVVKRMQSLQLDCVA

SMILES	IC50
CN1C(=O)[C@@H](NC(=O)c2nn(Cc3ccccc3)cc2F)COc2cccnc21 [Example 76, (S)-1-benzyl-4-fluoro-N-(5-methyl-4-oxo-2,3,4,5-tetrahydropyrido[3,2-b][1,4]oxazepin-3-yl)-1H-pyrazole-3-carboxamide]	0.1 to 1000 nM
CN1C(=O)[C@@H](NC(=O)c2ncc(C3(c4ccccc4)CC3)[nH]2)COc2ccccc21 [Example 78, (S)—N-(5-methyl-4-oxo-2,3,4,5-tetrahydrobenzo[b][1,4]oxazepin-3-yl)-5-(1-phenylcyclopropyl)-1H-imidazole-2-carboxamide]	0.1 to 1000 nM
CN1C(=O)[C@@H](NC(=O)c2nc3cccc(-c4ccccc4F)c3s2)COc2ccccc21 [Example 79, (S)-7-(2-fluorophenyl)-N-(5-methyl-4-oxo-2,3,4,5-tetrahydrobenzo[b][1,4]oxazepin-3-yl)benzo[d]thiazole-2-carboxamide]	0.1 to 1000 nM
O=C(N[C@H]1C(=O)Nc2c(F)cc(F)cc2[C@H]2C[C@H]21)c1nnc(Cc2ccccc2)[nH]1 [Example 83B, 5-benzyl-N-((1aR,2R,8bS)-5,7-difluoro-3-oxo-1,1a,2,3,4,8b-hexahydrobenzo[b]cyclopropa[d]azepin-2-yl)-4H-1,2,4-triazole-3-carboxamide]	1000 to 10000 nM
CN1C(=O)[C@@H](NC(=O)c2nc3cccc(-c4ccccc4)c3s2)COc2ccccc21 [Example 84, (S)—N-(5-methyl-4-oxo-2,3,4,5-tetrahydrobenzo[b][1,4]oxazepin-3-yl)-7-phenylbenzo[d]thiazole-2-carboxamide]	0.1 to 1000 nM
CN1C(=O)[C@@H](NC(=O)c2nnc(Cc3ccccc3)s2)COc2cccnc21 [Example 85, (S)-5-benzyl-N-(5-methyl-4-oxo-2,3,4,5-tetrahydropyrido[3,2-b][1,4]oxazepin-3-yl)-1,3,4-thiadiazole-2-carboxamide]	0.1 to 1000 nM
CN1C(=O)[C@@H](NC(=O)c2ncc(Cc3ccccc3)s2)COc2cccnc21 [Example 86, (S)-5-benzyl-N-(5-methyl-4-oxo-2,3,4,5-tetrahydropyrido[3,2-b][1,4]oxazepin-3-yl)thiazole-2-carboxamide]	0.1 to 1000 nM
CN1C(=O)[C@@H](NC(=O)c2cn(C3(c4ccccc4)CC3)nn2)COc2ccccc21 [Example 87, (S)—N-(5-methyl-4-oxo-2,3,4,5-tetrahydrobenzo[b][1,4]oxazepin-3-yl)-1-(1-phenylcyclopropyl)-1H-1,2,3-triazole-4-carboxamide]	0.1 to 1000 nM
CN1C(=O)[C@@H](NC(=O)c2cnc(C3(c4ccccc4)CC3)[nH]2)COc2ccccc21 [Example 88, (S)—N-(5-methyl-4-oxo-2,3,4,5-tetrahydrobenzo[b][1,4]oxazepin-3-yl)-2-(1-phenylcyclopropyl)-1H-imidazole-5-carboxamide]	> 3000 nM
O=C(N[C@H]1C(=O)Nc2c(F)cc(F)cc2[C@H]2C[C@H]21)c1nnc(Cc2ccccc2)o1 [Example 89A, 5-benzyl-N-((1aR,2R,8bS)-5,7-difluoro-3-oxo-1,1a,2,3,4,8b-hexahydrobenzo[b]cyclopropa[d]azepin-2-yl)-1,3,4-oxadiazole-2-carboxamide]	1000 to 10000 nM
O=C(N[C@@H]1C(=O)Nc2c(F)cc(F)cc2[C@@H]2C[C@H]12)c1nnc(Cc2ccccc2)o1 [Example 89B, 5-benzyl-N-((1aS,2S,8bR)-5,7-difluoro-3-oxo-1,1a,2,3,4,8b-hexahydrobenzo[b]cyclopropa[d]azepin-2-yl)-1,3,4-oxadiazole-2-carboxamide]	0.1 to 1000 nM
O=C(N[C@H]1C(=O)Nc2c(F)cc(F)cc2[C@H]2C[C@H]21)c1cn(Cc2ccccc2)nn1 [Example 90A, 1-benzyl-N-((1aR,2R,8bS)-5,7-difluoro-3-oxo-1,1a,2,3,4,8b-hexahydrobenzo[b]cyclopropa[d]azepin-2-yl)-1H-1,2,3-triazole-4-carboxamide]	1000 to 10000 nM
O=C(N[C@@H]1C(=O)Nc2c(F)cc(F)cc2[C@@H]2C[C@H]12)c1cn(Cc2ccccc2)nn1 [Example 90B, 1-benzyl-N-((1aS,2S,8bR)-5,7-difluoro-3-oxo-1,1a,2,3,4,8b-hexahydrobenzo[b]cyclopropa[d]azepin-2-yl)-1H-1,2,3-triazole-4-carboxamide]	0.1 to 1000 nM
O=C(N[C@H]1COc2cccnc2NC1=O)c1cc(C2(c3ccccc3)CC2)[nH]n1 [Example 91, (S)—N-(4-oxo-2,3,4,5-tetrahydropyrido[3,2-b][1,4]oxazepin-3-yl)-5-(1-phenylcyclopropyl)-1H-pyrazole-3-carboxamide]	0.1 to 1000 nM
[2H]C([2H])([2H])N1C(=O)[C@@H](NC(=O)c2cc(C3(n4nccn4)CC3)on2)CCc2cccnc21 [Example 207]	> 3000 nM
Cc1nc(C(=O)N[C@@H]2C(=O)N(C)c3nccnc3[C@@H]3C[C@H]23)cn1Cc1ccccc1 [Example 208]	0.1 to 1000 nM
CN1C(=O)[C@@H](NC(=O)c2nn(Cc3cocn3)cc2F)COc2cccnc21 [Example 209, (S)-4-fluoro-N-(5-methyl-4-oxo-2,3,4,5-tetrahydropyrido[3,2-b][1,4]oxazepin-3-yl)-1-(oxazol-4-ylmethyl)-1H-pyrazole-3-carboxamide]	0.1 to 1000 nM
CN1C(=O)[C@@H](NC(=O)c2ncc(Cc3ccccn3)s2)COc2cccnc21 [Example 213, (S)—N-(5-methyl-4-oxo-2,3,4,5-tetrahydropyrido[3,2-b][1,4]oxazepin-3-yl)-5-(pyridin-2-ylmethyl)thiazole-2-carboxamide]	0.1 to 1000 nM
CN1C(=O)[C@@H](NC(=O)c2nn(Cc3ccc(F)cn3)cc2F)COc2ccccc21 [Example 214, (S)-4-fluoro-1-((5-fluoropyridin-2-yl)methyl)-N-(5-methyl-4-oxo-2,3,4,5-tetrahydrobenzo[b][1,4]oxazepin-3-yl)-1H-pyrazole-3-carboxamide]	0.1 to 1000 nM
CN1C(=O)[C@@H](NC(=O)c2noc(Cc3ccccc3)n2)COc2cccnc21 [Example 215, (S)-5-benzyl-N-(5-methyl-4-oxo-2,3,4,5-tetrahydropyrido[3,2-b][1,4]oxazepin-3-yl)-1,2,4-oxadiazole-3-carboxamide]	0.1 to 1000 nM
CN1C(=O)[C@@H](NC(=O)c2nn(Cc3ccc(Cl)cn3)cc2F)COc2ccccc21 [Example 216, (S)-1-((5-chloropyridin-2-yl)methyl)-4-fluoro-N-(5-methyl-4-oxo-2,3,4,5-tetrahydrobenzo[b][1,4]oxazepin-3-yl)-1H-pyrazole-3-carboxamide]	0.1 to 1000 nM
C[C@H]1Oc2cccnc2N(C)C(=O)[C@H]1NC(=O)c1nnc(Cc2ccccc2)s1 [Example 217, 5-benzyl-N-((2R,3S)-2,5-dimethyl-4-oxo-2,3,4,5-tetrahydropyrido[3,2-b][1,4]oxazepin-3-yl)-1,3,4-thiadiazole-2-carboxamide]	0.1 to 1000 nM
CN1C(=O)[C@@H](NC(=O)c2nnc(Cc3ccccc3)[nH]2)[C@H]2C[C@H]2c2cc(C#N)cnc21 [Example 218, 5-benzyl-N-((1aS,2S,8bR)-7-cyano-4-methyl-3-oxo-1,1a,2,3,4,8b-hexahydrocyclopropa[d]pyrido[2,3-b]azepin-2-yl)-4H-1,2,4-triazole-3-carboxamide]	0.1 to 1000 nM
CN1C(=O)[C@@H](NC(=O)c2ncc(Cc3cccc(C#N)c3)s2)CCc2cccnc21 [Example 219, (S)-5-(3-cyanobenzyl)-N-(9-methyl-8-oxo-6,7,8,9-tetrahydro-5H-pyrido[2,3-b]azepin-7-yl)thiazole-2-carboxamide]	0.1 to 1000 nM

More lines, now with the values ahead:

IC50	SMILES
> 3000 nM	CN1C(=O)[C@H](NC(=O)c2nnc(Cc3ccccc3)[nH]2)[C@@H]2C[C@@H]2c2cccnc21 [Example 75B, 5-benzyl-N-((1aR,2R,8bS)-4-methyl-3-oxo-1,1a,2,3,4,8b-hexahydrocyclopropa[d]pyrido[2,3-b]azepin-2-yl)-4H-1,2,4-triazole-3-carboxamide]
0.1 to 1000 nM	CN1C(=O)[C@@H](NC(=O)c2cc(Cc3ccccc3)[nH]n2)[C@H]2C[C@H]2c2cccnc21 [Example 80A, 5-benzyl-N-((1aS,2S,8bR)-4-methyl-3-oxo-1,1a,2,3,4,8b-hexahydrocyclopropa[d]pyrido[2,3-b]azepin-2-yl)-1H-pyrazole-3-carboxamide]
> 3000 nM	CN1C(=O)[C@H](NC(=O)c2cc(Cc3ccccc3)[nH]n2)[C@@H]2C[C@@H]2c2cccnc21 [Example 80B, 5-benzyl-N-((1aR,2R,8bS)-4-methyl-3-oxo-1,1a,2,3,4,8b-hexahydrocyclopropa[d]pyrido[2,3-b]azepin-2-yl)-1H-pyrazole-3-carboxamide]
0.1 to 1000 nM	CN1C(=O)[C@@H](NC(=O)c2cc(Cc3ccccc3)on2)[C@H]2C[C@H]2c2cccnc21 [Example 81A, 5-benzyl-N-((1aS,2S,8bR)-4-methyl-3-oxo-1,1a,2,3,4,8b-hexahydrocyclopropa[d]pyrido[2,3-b]azepin-2-yl)isoxazole-3-carboxamide]
> 3000 nM	CN1C(=O)[C@H](NC(=O)c2cc(Cc3ccccc3)on2)[C@@H]2C[C@@H]2c2cccnc21 [Example 81B, 5-benzyl-N-((1aR,2R,8bS)-4-methyl-3-oxo-1,1a,2,3,4,8b-hexahydrocyclopropa[d]pyrido[2,3-b]azepin-2-yl)isoxazole-3-carboxamide]
0.1 to 1000 nM	CN1C(=O)[C@@H](NC(=O)c2nn(Cc3ccccc3)cc2F)[C@H]2C[C@H]2c2cccnc21 [Example 82A, 1-benzyl-4-fluoro-N-((1aS,2S,8bR)-4-methyl-3-oxo-1,1a,2,3,4,8b-hexahydrocyclopropa[d]pyrido[2,3-b]azepin-2-yl)-1H-pyrazole-3-carboxamide]
> 3000 nM	CN1C(=O)[C@H](NC(=O)c2nn(Cc3ccccc3)cc2F)[C@@H]2C[C@@H]2c2cccnc21 [Example 82B, 1-benzyl-4-fluoro-N-((1aR,2R,8bS)-4-methyl-3-oxo-1,1a,2,3,4,8b-hexahydrocyclopropa[d]pyrido[2,3-b]azepin-2-yl)-1H-pyrazole-3-carboxamide]
